Reference: US8088761B2, “Enzyme inhibitors” (Cancer Research Technology Limited, priority 2005, dated 2012)
Read-outs that look alike come from different tables or passages of the source.

Tests used:
[1] = target: T1, Aurora-A (Homo sapiens, UniProt O14965); assay: Flashplate Aurora A enzyme inhibition assay; assay type: biochemical
T1 sequence (O14965 1-403): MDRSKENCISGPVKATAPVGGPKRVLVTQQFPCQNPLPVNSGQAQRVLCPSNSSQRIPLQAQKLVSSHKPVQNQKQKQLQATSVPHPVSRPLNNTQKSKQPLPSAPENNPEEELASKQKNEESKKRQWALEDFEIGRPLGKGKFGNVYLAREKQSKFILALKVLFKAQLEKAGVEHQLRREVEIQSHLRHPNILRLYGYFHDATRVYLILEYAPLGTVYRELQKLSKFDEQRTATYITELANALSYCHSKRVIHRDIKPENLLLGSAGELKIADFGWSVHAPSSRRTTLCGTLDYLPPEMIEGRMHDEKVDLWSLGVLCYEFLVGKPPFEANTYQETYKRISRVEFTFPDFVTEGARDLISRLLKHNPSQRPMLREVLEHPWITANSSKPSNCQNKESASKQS
In short: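 This is a radiometric Flashplate format: plates were precoated with DTT, and compound (in 2% DMSO) was mixed with kinase buffer (pH 7.5 Tris, MgCl2, NaCl) containing 1 mM MBP, 20 μM ATP and ^33P-ATP. The reaction was started with 250 ng Aurora-A per well and incubated 2 h at RT. It was then stopped by 10 mM sodium pyrophosphate washing, and plates were scintillation-counted.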

[2] = test system: HCT116 cells; assay: Cell viability assay (MTT) in HCT116 cell line; assay type: cell-based; conditions: Homo sapiens, HCT-116, 72 hrs, IC50 range, read-out: HCT116 cell growth inhibition
In short: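 MTT read-out (4 hrs, 37 °C, DMSO extraction) following 72 hrs of treatment with 0-50 μM Aurora inhibitor. HCT116 cells were plated a day earlier and tested in triplicate; IC50 derived from the curve.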

[3] = Flashplate assay, IC50 range, read-out: Aurora-A inhibition

In the case of `O=C(CN1CCN(c2c(Br)cnc3[nH]c(-c4cccnc4)nc23)CC1)Nc1nccs1` [Example 44, 2-(4-(6-Bromo-2-(pyridin-3-yl)-3H-imidazo[4,5-b]pyridin-7-yl)piperazin-1-yl)-N-(thiazol-2-yl)acetamide], the IC50 [1, 3] is reported as less than 500 nM and the IC50 [2] is reported as 500 to 2000 nM.
`Brc1cnc2[nH]c(-c3ccc(N4CCNCC4)cc3)nc2c1N1CCN(Cc2cccnc2)CC1` [Example 104, 6-Bromo-2-(4-(piperazin-1-yl)phenyl)-7-(4-(pyridin-3-ylmethyl)piperazin-1-yl)-3H-imidazo[4,5-b]pyridine] was tested, and the IC50 [1, 3] was less than 500 nM and the IC50 [2] was less than 500 nM.
In the case of `CC(C)(C)OC(=O)N1CCN(Cc2ccc(-c3nc4c(N5CCN(Cc6cncnc6)CC5)c(Cl)cnc4[nH]3)cc2)CC1` [Example 140, tert-Butyl 4-(4-(6-chloro-7-(4-(pyrimidin-5-ylmethyl)piperazin-1-yl)-3H-imidazo[4,5-b]pyridin-2-yl)benzyl)piperazine-1-carboxylate], the IC50 [1, 3] is reported as less than 500 nM and the IC50 [2] is reported as less than 500 nM.
Work on `COc1ccc(-c2nc3c(N4CCN(CC5CC5)CC4)c(Br)cnc3[nH]2)cc1` [Example 73, 6-Bromo-7-(4-cyclopropylmethyl-piperazin-1-yl)-2-(4-methoxy-phenyl)-3H-imidazo[4,5-b]pyridine] yielded an IC50 [1, 3] of 500 to 2000 nM and an IC50 [2] of 500 to 2000 nM.
Work on `CN(C)CCOc1ccc(-c2nc3c(N4CCN(Cc5cccnc5)CC4)c(Br)cnc3[nH]2)cc1` [Example 111, 2-(4-(6-Bromo-7-(4-(pyridin-3-ylmethyl)piperazin-1-yl)-3H-imidazo[4,5-b]pyridin-2-yl)phenoxy)-N,N-dimethylethanamine] yielded an IC50 [1, 3] of less than 500 nM and an IC50 [2] of less than 500 nM.
`COc1ccc(-c2nc3c(N4CCN(Cc5cncs5)CC4)c(Br)cnc3[nH]2)cc1` [Example 170, 5-((4-(6-Bromo-2-(4-methoxyphenyl)-3H-imidazo[4,5-b]pyridin-7-yl)piperazin-1-yl)methyl)thiazole] was tested, and the IC50 [1, 3] was less than 500 nM and the IC50 [2] was 500 to 2000 nM.
Molecule `CN(C)c1ccc(-c2nc3c(N4CCN(C(=O)COc5ccccc5)CC4)c(Br)cnc3[nH]2)cc1` [Example 38, 1-(4-(6-Bromo-2-(4-(dimethylamino)phenyl)-3H-imidazo[4,5-b]pyridin-7-yl)piperazin-1-yl)-2-phenoxyethanone] has an IC50 [1, 3] of less than 500 nM and an IC50 [2] of 500 to 2000 nM.
With `Cc1nc(CN2CCN(c3c(Br)cnc4[nH]c(-c5ccc(N6CCOCC6)cc5)nc34)CC2)cs1` [Example 159, 4-(4-(6-Bromo-7-(4-((2-methylthiazol-4-yl)methyl)piperazin-1-yl)-3H-imidazo[4,5-b]pyridin-2-yl)phenyl)morpholine] the IC50 [1, 3] was less than 500 nM and the IC50 [2] was 500 to 2000 nM.
With `O=C(CN1CCN(c2c(Cl)cnc3[nH]c(-c4ccc(N5CCC(O)CC5)cc4)nc23)CC1)Nc1nccs1` [Example 184, 2-(4-(6-Chloro-2-(4-(4-hydroxypiperidin-1-yl)phenyl)-3H-imidazo[4,5-b]pyridin-7-yl)piperazin-1-yl)-N-(thiazol-2-yl)acetamide] the IC50 [1, 3] was less than 500 nM and the IC50 [2] was 500 to 2000 nM.
With `Cc1cc(NC(=O)CN2CCN(c3c(Cl)cnc4[nH]c(-c5ccc(N(C)C)cc5)nc34)CC2)on1` [Example 63, 2-(4-(6-Chloro-2-(4-(dimethylamino)phenyl)-3H-imidazo[4,5-b]pyridin-7-yl)piperazin-1-yl)-N-(3-methylisoxazol-5-yl)acetamide] the IC50 [1, 3] was less than 500 nM and the IC50 [2] was 500 to 2000 nM.
With `CC(c1ccncc1)N1CCN(c2c(Br)cnc3[nH]c(-c4ccc(N5CCOCC5)cc4)nc23)CC1` (centres unmarked) [Example 130, 4-(4-(6-Bromo-7-(4-(1-(pyridin-4-yl)ethyl)piperazin-1-yl)-3H-imidazo[4,5-b]pyridin-2-yl)phenyl)morpholine] the IC50 [1, 3] was less than 500 nM and the IC50 [2] was 500 to 2000 nM.
In the case of `CC(C)CN1CCN(c2c(Br)cnc3[nH]c(-c4ccc(N(C)C)cc4)nc23)CC1` [Example 32, 4-(6-Bromo-7-(4-isobutylpiperazin-1-yl)-3H-imidazo[4,5-b]pyridin-2-yl)-N,N-dimethylaniline], the IC50 [1] is reported as less than 500 nM and the IC50 [2] is reported as 500 to 2000 nM.
`Cn1cncc1CN1CCN(c2c(Br)cnc3[nH]c(-c4ccc(Cn5cccn5)cc4)nc23)CC1` [Example 182, 2-(4-((1H-Pyrazol-1-yl)methyl)phenyl)-6-bromo-7-(4-((1-methyl-1H-imidazol-5-yl)methyl)piperazin-1-yl)-3H-imidazo[4,5-b]pyridine] was tested, and the IC50 [1, 3] was less than 500 nM and the IC50 [2] was 500 to 2000 nM.
Work on `NCc1ccc(-c2nc3c(N4CCC(Oc5ccccc5)CC4)c(Br)cnc3[nH]2)cc1` [Example 135, (4-(6-Bromo-7-(4-phenoxypiperidin-1-yl)-3H-imidazo[4,5-b]pyridin-2-yl)phenyl)methanamine] yielded an IC50 [1, 3] of less than 500 nM and an IC50 [2] of 500 to 2000 nM.
`COc1ccc(-c2nc3c(N4CCN(Cc5cncnc5)CC4)c(Cl)cnc3[nH]2)cc1` [Example 139, 6-Chloro-2-(4-methoxyphenyl)-7-(4-(pyrimidin-5-ylmethyl)piperazin-1-yl)-3H-imidazo[4,5-b]pyridine] gave an IC50 [1, 3] of less than 500 nM and an IC50 [2] of 500 to 2000 nM.
With `NCc1cccc(-c2nc3c(N4CCN(CC(=O)Nc5nccs5)CC4)c(Br)cnc3[nH]2)c1` [Example 12, 2-{4-[2-(3-Aminomethyl-phenyl)-6-bromo-3H-imidazo[4,5-b]pyridin-7-yl]-piperazin-1-yl}-N-thiazol-2-yl-acetamide] the IC50 [1, 3] was less than 500 nM and the IC50 [2] was 2000 to 50000 nM.
Work on `CN1CCN(c2ccc(-c3nc4c(N5CCN(Cc6cccnc6)CC5)c(Br)cnc4[nH]3)cc2)CC1` [Example 101, 6-Bromo-2-(4-(4-methylpiperazin-1-yl)phenyl)-7-(4-(pyridin-3-ylmethyl)piperazin-1-yl)-3H-imidazo[4,5-b]pyridine] yielded an IC50 [1, 3] of less than 500 nM and an IC50 [2] of 500 to 2000 nM.
In the case of `COc1ccc(-c2nc3c(N4CCN(Cc5csc(C)n5)CC4)c(Br)cnc3[nH]2)cc1` [Example 144, 4-((4-(6-Bromo-2-(4-methoxyphenyl)-3H-imidazo[4,5-b]pyridin-7-yl)piperazin-1-yl)methyl)-2-methylthiazole], the IC50 [1, 3] is reported as less than 500 nM and the IC50 [2] is reported as less than 500 nM.
`Cc1nc(CN2CCN(c3c(Cl)cnc4[nH]c(-c5ccc(Cn6cccn6)cc5)nc34)CC2)cs1` [Example 173, 4-((4-(2-(4-((1H-Pyrazol-1-yl)methyl)phenyl)-6-chloro-3H-imidazo[4,5-b]pyridin-7-yl)piperazin-1-yl)methyl)-2-methylthiazole] was tested, and the IC50 [1, 3] was less than 500 nM and the IC50 [2] was less than 500 nM.
Molecule `CC(c1cccnc1)N1CCN(c2c(Br)cnc3[nH]c(-c4ccc(N(C)C)cc4)nc23)CC1` (centres unmarked) [Example 52, 4-(6-Bromo-7-(4-(1-(pyridin-3-yl)ethyl)piperazin-1-yl)-3H-imidazo[4,5-b]pyridin-2-yl)-N,N-dimethylaniline] has an IC50 [1, 3] of less than 500 nM and an IC50 [2] of 500 to 2000 nM.
Work on `FC(F)(F)c1ccc(CN2CCN(c3c(Br)cnc4[nH]c(-c5ccc(CN6CCOCC6)cc5)nc34)CC2)cn1` [Example 125, 4-(4-(6-Bromo-7-(4-((6-(trifluoromethyl)pyridin-3-yl)methyl)piperazin-1-yl)-3H-imidazo[4,5-b]pyridin-2-yl)benzyl)morpholine] yielded an IC50 [1, 3] of less than 500 nM and an IC50 [2] of less than 500 nM.
For `COc1ccc(-c2nc3c(N4CCN(CC(=O)Nc5cc(C)no5)CC4)c(Cl)cnc3[nH]2)cc1` [Example 64, 2-(4-(6-Chloro-2-(4-methoxyphenyl)-3H-imidazo[4,5-b]pyridin-7-yl)piperazin-1-yl)-N-(3-methylisoxazol-5-yl)acetamide], the IC50 [1, 3] was less than 500 nM and the IC50 [2] was 500 to 2000 nM.
Molecule `CN(C)Cc1ccc(-c2nc3c(N4CCN(CC(=O)Nc5nccs5)CC4)c(Br)cnc3[nH]2)cc1` [Example 8, 2-{4-[6-Bromo-2-(4-dimethylaminomethyl-phenyl)-3H-imidazo[4,5-b]pyridin-7-yl]-piperazin-1-yl}-N-thiazol-2-yl-acetamide] has an IC50 [1, 3] of less than 500 nM and an IC50 [2] of 500 to 2000 nM.
`CCN1CCN(c2c(Cl)cnc3[nH]c(-c4ccc(Cn5cccn5)cc4)nc23)CC1` [Example 143, 2-(4-((1H-pyrazol-1-yl)methyl)phenyl)-6-chloro-7-(4-ethylpiperazin-1-yl)-3H-imidazo[4,5-b]pyridine] was tested, and the IC50 [1, 3] was less than 500 nM and the IC50 [2] was less than 500 nM.
With `CC(c1ccccc1)N1CCN(c2c(Cl)cnc3[nH]c(-c4ccc(N(C)C)cc4)nc23)CC1` (centres unmarked) [Example 17, 4-(6-chloro-7-(4-(1-phenylethyl)piperazin-1-yl)-3H-imidazo[4,5-b]pyridin-2-yl)-N,N-dimethylaniline] the IC50 [1, 3] was less than 500 nM and the IC50 [2] was 500 to 2000 nM.
In the case of `COc1ccc(CN2CCN(c3c(Br)cnc4[nH]c(-c5ccc(CN6CCOCC6)cc5)nc34)CC2)cn1` [Example 117, 4-(4-(6-Bromo-7-(4-((6-methoxypyridin-3-yl)methyl)piperazin-1-yl)-3H-imidazo[4,5-b]pyridin-2-yl)benzyl)morpholine], the IC50 [1, 3] is reported as less than 500 nM and the IC50 [2] is reported as 500 to 2000 nM.
`CC(c1ccccn1)N1CCN(c2c(Br)cnc3[nH]c(-c4ccc(N(C)C)cc4)nc23)CC1` (centres unmarked) [Example 50, 4-(6-Bromo-7-(4-(1-(pyridin-2-yl)ethyl)piperazin-1-yl)-3H-imidazo[4,5-b]pyridin-2-yl)-N,N-dimethylaniline] showed an IC50 [1, 3] of less than 500 nM and an IC50 [2] of 500 to 2000 nM.
In the case of `Cn1cc(-c2nc3c(N4CCN(Cc5cccnc5)CC4)c(Br)cnc3[nH]2)cn1` [Example 56, 6-Bromo-2-(1-methyl-1H-pyrazol-4-yl)-7-(4-(pyridin-3-ylmethyl)piperazin-1-yl)-3H-imidazo[4,5-b]pyridine], the IC50 [1, 3] is reported as less than 500 nM and the IC50 [2] is reported as 2000 to 50000 nM.
